Measured values: US20100016156A1, “Pesticidal Mixtures” (BASF SE, priority 2007, published 2010)

Assays:
[1] = system: Blumeria graminis f. sp. tritici; test: Control of powdery mildew on wheat (protective spray, greenhouse); type: in vivo; details: 7 days after inoculation, untreated 70% infection
Procedure: Preparation: The spray solutions were prepared in several steps:
A stock solution was prepared: a mixture of acetone and/or DMSO and the wetting agent/emulsifier Uniperol, which is based on ethoxylated alkylphenoles, in a relation (volume) solvent-emulsifier of 99 to 1 was added to 25 mg of the compound to give a total of 10 ml. Water was then added to total volume of 100 ml.
This stock solution was diluted with the described solvent-emulsifier-water mixture to the given concentration.
The first fully developed leaves of pot grown wheat were sprayed to run-off with an aqueous suspension, containing the concentration of active ingredient or their mixture mentioned in the table below. […] After cultivation in the greenhouse for 7 days at 22-26° C. and a relative humidity between 60 to 90% the extent of fungal attack on the leaves was visually assessed as % diseased leaf area.
The visually determined percentages of infected leaf areas were converted into efficacies in % of the untreated control:
The efficacy (E) is calculated as follows using Abbot's formula: […]
The expected efficacies of active compound combinations were determined using Colby's formula (Colby, S. R. “Calculating synergistic and antagonistic responses of herbicide combinations”, Weeds, 15, 20-22, 1967) and compared with the observed efficacies. […]

Pyrenophora teres = test: Control of net blotch on barley (protective spray, greenhouse); type: in vivo, Pyrenophora (syn. Drechslera) teres; details: 6 days after inoculation, untreated 70% infection
Procedure: Preparation: The spray solutions were prepared in several steps: A stock solution was prepared: a mixture of acetone and/or DMSO and the wetting agent/emulsifier Uniperol, which is based on ethoxylated alkylphenoles, in a relation (volume) solvent-emulsifier of 99 to 1 was added to 25 mg of the compound to give a total of 10 ml. Water was then added to total volume of 100 ml. This stock solution was diluted with the described solvent-emulsifier-water mixture to the given concentration. The first fully developed leaves of pot grown barley plants were sprayed to run-off with an aqueous suspension, containing the concentration of active ingredient or their mentioned in the table below. The next day the treated plants were inoculated with an aqueous spore suspension of Pyrenophora (syn. Drechslera) teres. Then the trial plants were immediately transferred to a humid chamber in the greenhouse. After 6 days of cultivation at 20-24° C. and a relative humidity close to 70%, the extent of fungal attack on the leaves was visually assessed as % leaf area. Evaluation was carried out analogously to example 1.

| Compound | Efficacy in % of the untreated control ([1]; 0.063 ppm in spray liquor) [%] | Efficacy in % of the untreated control (Pyrenophora teres; 0.25 ppm in spray liquor) [%] | Efficacy in % of the untreated control ([1]; 0.25 ppm in spray liquor) [%] | Efficacy in % of the untreated control (Pyrenophora teres; 4 ppm in spray liquor) [%] | Efficacy in % of the untreated control (Pyrenophora teres; 16 ppm in spray liquor) [%] |
| --- | --- | --- | --- | --- | --- |
| CO/N=C(/C1=NOCCO1)c1ccccc1Oc1ncnc(Oc2ccccc2Cl)c1F [Fluoxastrobin, (E)-{2-[6-(2-chlorophenoxy)-5-fluoropyrimidin-4-yloxy]phenyl}(5,6-dihydro-1,4,2-dioxazin-3-yl)methanone O-methyloxime] | 0 | 0 |  |  |  |
| CN/C(=N\[N+](=O)[O-])NCc1cnc(Cl)s1 [Clothianidine, (E)-1-(2-chloro-1,3-thiazol-5-ylmethyl)-3-methyl-2-nitroguanidine] |  |  | 0 | 0 | 0 |
